Assay results published in ChEMBL document CHEMBL2074413, “Effect of cisplatin-induced acute renal failure on bioavailability and intestinal secretion of quinolone antibacterial drugs in rats” (Pharm Res, 2004).
Values belong to the molecule of their own block, whether it stands above or below them.

What was measured:
Format in all cases: functional, cell-based
[1] = target: T1, ATP-dependent translocase ABCB1 (Homo sapiens, UniProt P08183); assay: TP_TRANSPORTER: transepithelial transport (basal to apical) of Digoxin at a concentration of 58.8nM in LLC-GA5-COL150 cells; conditions: pig
T1 sequence (P08183 whole entry): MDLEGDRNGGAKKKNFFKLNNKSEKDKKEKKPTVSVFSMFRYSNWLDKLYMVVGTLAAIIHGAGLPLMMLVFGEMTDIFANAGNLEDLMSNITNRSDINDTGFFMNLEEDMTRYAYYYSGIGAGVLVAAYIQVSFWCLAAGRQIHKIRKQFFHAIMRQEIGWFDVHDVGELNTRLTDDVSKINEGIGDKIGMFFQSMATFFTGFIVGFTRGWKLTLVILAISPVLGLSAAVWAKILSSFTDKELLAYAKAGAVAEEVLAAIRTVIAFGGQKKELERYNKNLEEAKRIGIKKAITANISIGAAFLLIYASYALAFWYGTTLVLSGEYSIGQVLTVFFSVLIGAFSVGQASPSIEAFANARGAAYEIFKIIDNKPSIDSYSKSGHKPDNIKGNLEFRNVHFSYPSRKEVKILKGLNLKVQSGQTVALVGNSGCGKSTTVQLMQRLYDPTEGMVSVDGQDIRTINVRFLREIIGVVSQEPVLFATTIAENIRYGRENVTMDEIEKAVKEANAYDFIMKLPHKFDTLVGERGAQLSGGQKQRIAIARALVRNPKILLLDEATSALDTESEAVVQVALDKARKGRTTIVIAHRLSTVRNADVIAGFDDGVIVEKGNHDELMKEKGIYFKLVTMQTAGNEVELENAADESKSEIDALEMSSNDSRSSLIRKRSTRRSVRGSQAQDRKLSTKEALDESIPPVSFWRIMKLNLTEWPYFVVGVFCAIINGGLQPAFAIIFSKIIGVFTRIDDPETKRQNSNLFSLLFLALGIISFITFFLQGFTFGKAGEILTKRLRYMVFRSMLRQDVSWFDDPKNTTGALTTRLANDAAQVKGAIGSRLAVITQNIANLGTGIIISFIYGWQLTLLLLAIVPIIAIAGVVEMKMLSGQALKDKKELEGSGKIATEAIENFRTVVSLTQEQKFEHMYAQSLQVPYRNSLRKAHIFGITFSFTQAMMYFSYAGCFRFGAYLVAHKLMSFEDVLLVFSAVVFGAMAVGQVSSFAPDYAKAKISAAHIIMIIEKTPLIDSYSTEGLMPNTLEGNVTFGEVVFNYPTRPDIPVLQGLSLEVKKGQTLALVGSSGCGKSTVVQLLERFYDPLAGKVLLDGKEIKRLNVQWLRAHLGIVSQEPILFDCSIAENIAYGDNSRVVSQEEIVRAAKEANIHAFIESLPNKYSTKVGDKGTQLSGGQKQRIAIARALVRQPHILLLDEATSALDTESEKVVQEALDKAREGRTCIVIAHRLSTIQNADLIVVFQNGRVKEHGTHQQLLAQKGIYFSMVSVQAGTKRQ

[2] = target: T1, ATP-dependent translocase ABCB1; assay: TP_TRANSPORTER: transepithelial transport (basal to apical) of Grepafloxacin at a concentration of 5uM in LLC-GA5-COL150 cells; conditions: pig, llc-ga5-col150, 5 µM
[3] = target: T1, ATP-dependent translocase ABCB1; assay: TP_TRANSPORTER: transepithelial transport (basal to apical) of Levofloxacin at a concentration of 5uM in LLC-GA5-COL150 cells; conditions: pig, llc-ga5-col150, 5 µM
[4] = target: T1, ATP-dependent translocase ABCB1; assay: TP_TRANSPORTER: transepithelial transport (basal to apical) of Ciprofloxacin at 2uM in LLC-GA5-COL150 cells; conditions: pig, llc-ga5-col150, 2 µM

Activity [1]: substrate [+]
SMILES: C[C@H]1O[C@@H](O[C@H]2[C@@H](O)C[C@H](O[C@H]3[C@@H](O)C[C@H](O[C@H]4CC[C@@]5(C)[C@H](CC[C@@H]6[C@@H]5C[C@@H](O)[C@]5(C)[C@@H](C7=CC(=O)OC7)CC[C@]65O)C4)O[C@@H]3C)O[C@@H]2C)C[C@H](O)[C@@H]1O [DIGOXIN]

Activity [2]: substrate [+]
SMILES: Cc1c(F)c(N2CCNC(C)C2)cc2c1c(=O)c(C(=O)O)cn2C1CC1 (centres undefined) [GREPAFLOXACIN]

Activity [3]: substrate [+]
SMILES: C[C@H]1COc2c(N3CCN(C)CC3)c(F)cc3c(=O)c(C(=O)O)cn1c23.C[C@H]1COc2c(N3CCN(C)CC3)c(F)cc3c(=O)c(C(=O)O)cn1c23.O [LEVOFLOXACIN]

Activity [4]: is not a substrate [-]
SMILES: O=C(O)c1cn(C2CC2)c2cc(N3CCNCC3)c(F)cc2c1=O [CIPROFLOXACIN]
